Data published in US20080187911A1, “Methods and compositions for analysis of mitochondrial-related gene expression” (priority 2003, published 2008).

Legend:
[1] = system: mitochondrial DNA encoded gene expression; experiment: Microarray analysis of mitochondrial DNA encoded gene expression in response to 3-nitropropionic acid; assay type: cell-based; conditions: 3 NPA treatments at 6, 12 and 26 hours; inhibition of Complex II (succinic dehydrogenase)
Protocol: FIGS. 5A-5B. Analysis of mitochondrial DNA encoded gene expression. FIG. 5A—response to 3-nitropropionic acid, an inhibitor of Complex II—succinic dehydrogenase. […] FIG. 5B-analysis of mitochondrial DNA encoded gene expression in trypanosome infected heart tissue.
Analysis of mitochondrial DNA encoded gene expression in response to 3-nitropropionic acid (3NPA), an inhibitor of Complex II—succinic dehydrogenase was performed (FIG. 5A, Table 5). The 3 NPA treatments were at 6, 12 and 26 hours.

[2] = system: mouse mitochondrial genes in AML-12 mouse liver cells; experiment: Microarray analysis of the effects of rotenone on expression of mouse mitochondrial genes; assay type: cell-based; conditions: AML-12 mouse liver cells in culture
Excerpt: FIG. 4. The effects of rotenone, an inhibitor of mitochondrial Complex I, on the expression of mouse mitochondrial genes in AML-12 mouse liver cells in culture.
The effects of rotenone, an inhibitor of mitochondrial Complex I, on the expression of mouse mitochondrial genes in AML-12 mouse liver cells in culture were examined (FIG. 4; Table 4). […] Spots A1-G11 represent mitochondrial related nuclear encoded genes; spots G12-H12 represent the 13 genes encoded by mitochondrial DNA. It should be noted that in subsequent microarray designs (constructions) the mitochondrial DNA encoded genes G12-H12 were removed from the filters and arrayed separately. Thus, the G12-H12 spots were replaced with nuclear encoded genes. […] E4 and E5 represent the […] and 16S mitochondrial ribosomal RNAs.

Row | Compound | synthesis of mitochondrial encoded mRNAs and ribosomal RNAs [1] | mRNA pool levels of mitochondrial-related genes on the microarray ([2]; genes named: A11 ATP synthase lipid binding proteins, B8 ADP, ATP carrier protein, B9 cytochrome C oxidase chain VIIa, D12 chaperonin 10, E12 pyruvate carboxylase, H7 Complex I: Protein Dehydrogenase chain 3) | production of mRNAs of Complex I proteins (H7, H10) ([2]; inhibition of Complex I, suggested compensatory response)
1 | O=C(O)CC[N+](=O)[O-] [3-nitropropionic acid] | stimulates the synthesis of mitochondrial encoded mRNAs and the 23S and 16S ribosomal RNAs |  | 
2 | C=C(C)[C@H]1Cc2c(ccc3c2O[C@@H]2COc4cc(OC)c(OC)cc4[C@@H]2C3=O)O1 [rotenone] |  | up-regulated | may stimulate the production of mRNAs of Complex I proteins (H7, H10)
